Each compound was assayed against human NaV 1.8 (Homo sapiens, UniProt Q9Y5Y9) (assay: E-VIPR assay for detecting and measuring NaV inhibition properties). Settings: E-VIPR assay conducted in the presence of human serum; HEK cells expressing truncated human NaV 1.8; read-out: IC50.
Assay type: cell-based
Procedure, shortened: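 Membrane-potential (coumarin/oxonol) readout after 10 s of 10 Hz biphasic electrical stimulation on E-VIPR. Compounds: 11-point 3-fold dilutions, […], 0.625% DMSO, 30 min at room temperature, human serum optional. Cells: HEK expressing truncated human NaV1.8 co-transduced with KIR2.1.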

human NaV 1.8, sequence (Q9Y5Y9 whole entry, looked up, the tested form may be a part): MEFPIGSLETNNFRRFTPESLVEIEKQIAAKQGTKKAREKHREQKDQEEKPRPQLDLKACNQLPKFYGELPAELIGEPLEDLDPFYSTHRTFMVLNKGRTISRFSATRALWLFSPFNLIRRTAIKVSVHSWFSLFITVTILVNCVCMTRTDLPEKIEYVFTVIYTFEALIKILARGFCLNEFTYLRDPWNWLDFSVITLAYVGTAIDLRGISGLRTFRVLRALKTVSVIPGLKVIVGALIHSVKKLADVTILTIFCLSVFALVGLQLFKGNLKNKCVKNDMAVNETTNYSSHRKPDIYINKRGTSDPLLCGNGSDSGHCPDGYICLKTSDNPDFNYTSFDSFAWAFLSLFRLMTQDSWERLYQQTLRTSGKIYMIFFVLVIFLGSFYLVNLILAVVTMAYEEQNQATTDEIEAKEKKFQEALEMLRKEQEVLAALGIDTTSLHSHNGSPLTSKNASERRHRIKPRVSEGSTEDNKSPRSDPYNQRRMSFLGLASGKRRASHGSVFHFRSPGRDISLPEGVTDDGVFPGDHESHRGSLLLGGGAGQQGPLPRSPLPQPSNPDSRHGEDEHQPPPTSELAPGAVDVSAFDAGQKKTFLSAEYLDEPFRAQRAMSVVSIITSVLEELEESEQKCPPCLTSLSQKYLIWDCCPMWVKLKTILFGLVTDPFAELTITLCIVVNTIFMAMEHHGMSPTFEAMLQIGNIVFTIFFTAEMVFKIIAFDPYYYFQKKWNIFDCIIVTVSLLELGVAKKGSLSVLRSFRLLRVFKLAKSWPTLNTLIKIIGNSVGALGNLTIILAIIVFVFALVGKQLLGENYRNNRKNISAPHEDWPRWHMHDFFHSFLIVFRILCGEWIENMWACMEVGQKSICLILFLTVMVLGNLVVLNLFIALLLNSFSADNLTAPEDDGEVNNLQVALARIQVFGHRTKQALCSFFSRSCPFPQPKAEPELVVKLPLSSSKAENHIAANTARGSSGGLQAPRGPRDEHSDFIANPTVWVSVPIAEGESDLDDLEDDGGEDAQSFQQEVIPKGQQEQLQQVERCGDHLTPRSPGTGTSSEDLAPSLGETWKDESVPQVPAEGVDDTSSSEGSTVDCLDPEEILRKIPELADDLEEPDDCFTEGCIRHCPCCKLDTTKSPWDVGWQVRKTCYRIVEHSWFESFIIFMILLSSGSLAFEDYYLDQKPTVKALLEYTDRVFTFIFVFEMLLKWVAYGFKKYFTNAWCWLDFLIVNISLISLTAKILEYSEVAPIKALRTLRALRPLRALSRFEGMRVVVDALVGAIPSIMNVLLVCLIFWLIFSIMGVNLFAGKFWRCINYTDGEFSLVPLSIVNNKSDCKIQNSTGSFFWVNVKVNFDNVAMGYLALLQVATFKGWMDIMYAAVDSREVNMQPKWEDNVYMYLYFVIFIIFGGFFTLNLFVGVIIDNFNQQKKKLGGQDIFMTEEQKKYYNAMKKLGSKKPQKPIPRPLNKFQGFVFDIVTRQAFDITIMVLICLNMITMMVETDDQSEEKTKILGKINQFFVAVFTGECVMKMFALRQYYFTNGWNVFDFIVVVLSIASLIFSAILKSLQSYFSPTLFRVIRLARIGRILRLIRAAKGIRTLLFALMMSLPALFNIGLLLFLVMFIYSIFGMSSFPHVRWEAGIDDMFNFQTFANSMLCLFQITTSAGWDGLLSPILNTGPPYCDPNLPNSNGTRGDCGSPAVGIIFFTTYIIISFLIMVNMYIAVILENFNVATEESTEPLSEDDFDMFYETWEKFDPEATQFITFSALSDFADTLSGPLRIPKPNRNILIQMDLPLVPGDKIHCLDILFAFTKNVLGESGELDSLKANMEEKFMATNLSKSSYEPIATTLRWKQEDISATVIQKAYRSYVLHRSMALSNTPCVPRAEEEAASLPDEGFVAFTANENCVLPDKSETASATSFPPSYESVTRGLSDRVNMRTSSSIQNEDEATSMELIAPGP

Compared with COc1c(Oc2ccc(C(F)(F)F)c(C)c2C(=O)Nc2cc(C(N)=O)ccn2)ccc(OC(F)(F)F)c1F [Compound 313, 2-[[6-[3-fluoro-2-methoxy-4-(trifluoromethoxy)phenoxy]-2-methyl-3-(trifluoromethyl)benzoyl]amino]pyridine-4-carboxamide], COc1c(Oc2ccc(C(F)(F)F)c(F)c2C(=O)Nc2cc(C(N)=O)ccn2)ccc(OC(F)(F)F)c1F [Compound 330, 2-[[2-fluoro-6-[3-fluoro-2-methoxy-4-(trifluoromethoxy)phenoxy]-3-(trifluoromethyl)benzoyl]amino]pyridine-4-carboxamide] is 4.2-fold lower in IC50: 121 nM for the first, 29 nM for the second. The second is the more potent here.

COc1c(Oc2ccc(C(F)(F)F)c(C)c2C(=O)Nc2cnc(C(N)=O)nc2)ccc(OC(F)(F)F)c1F [Compound 314, 5-[[6-[3-fluoro-2-methoxy-4-(trifluoromethoxy)phenoxy]-2-methyl-3-(trifluoromethyl)benzoyl]amino]pyrimidine-2-carboxamide] and COc1c(Oc2ccc(C(F)(F)F)c(F)c2C(=O)Nc2cnc(C(N)=O)nc2)ccc(OC(F)(F)F)c1F [Compound 331, 5-[[2-fluoro-6-[3-fluoro-2-methoxy-4-(trifluoromethoxy)phenoxy]-3-(trifluoromethyl)benzoyl]amino]pyrimidine-2-carboxamide] are within 1.5-fold of each other in IC50: 6.5 nM for the first, 4.6 nM for the second.

First: COc1c(Oc2ccc(C(F)(F)F)c(C)c2C(=O)Nc2cc(C(N)=O)ncn2)ccc(OC(F)(F)F)c1F [Compound 315, 6-[[6-[3-fluoro-2-methoxy-4-(trifluoromethoxy)phenoxy]-2-methyl-3-(trifluoromethyl)benzoyl]amino]pyrimidine-4-carboxamide]
Second: COc1c(Oc2ccc(C(F)(F)F)c(F)c2C(=O)Nc2cc(C(N)=O)ncn2)ccc(OC(F)(F)F)c1F [Compound 329, 6-[[2-fluoro-6-[3-fluoro-2-methoxy-4-(trifluoromethoxy)phenoxy]-3-(trifluoromethyl)benzoyl]amino]pyrimidine-4-carboxamide]
The IC50 of the first is 9.4-fold higher: 120 nM for the first, 12.7 nM for the second. The second is the more potent here.

First: COc1c(Oc2ccc(C(F)(F)F)c(C)c2C(=O)Nc2cnc(C(N)=O)cn2)ccc(OC(F)(F)F)c1F [Compound 316, 5-[[6-[3-fluoro-2-methoxy-4-(trifluoromethoxy)phenoxy]-2-methyl-3-(trifluoromethyl)benzoyl]amino]pyrazine-2-carboxamide]
Second: COc1c(Oc2ccc(C(F)(F)F)c(C)c2C(=O)Nc2ccc(C(N)=O)nn2)ccc(OC(F)(F)F)c1F [Compound 317, 6-[[6-[3-fluoro-2-methoxy-4-(trifluoromethoxy)phenoxy]-2-methyl-3-(trifluoromethyl)benzoyl]amino]pyridazine-3-carboxamide]
The IC50 of the first is 22-fold lower: 24 nM for the first, 520 nM for the second.

Compared with COc1c(Oc2cc(C(F)(F)F)cc(F)c2C(=O)Nc2cc(C(N)=O)ncc2C)ccc(OC(F)(F)F)c1F [Compound 318, 4-[[2-fluoro-6-[3-fluoro-2-methoxy-4-(trifluoromethoxy)phenoxy]-4-(trifluoromethyl)benzoyl]amino]-5-methyl-pyridine-2-carboxamide], COc1c(Oc2cnc(C(F)(F)F)c(C)c2C(=O)Nc2cc(C(N)=O)ncc2C)ccc(OC(F)(F)F)c1F [Compound 336, N-(2-carbamoyl-5-methyl-4-pyridyl)-5-[3-fluoro-2-methoxy-4-(trifluoromethoxy)phenoxy]-3-methyl-2-(trifluoromethyl)pyridine-4-carboxamide] is 2.7-fold lower in IC50: 15.1 nM for the first, 5.6 nM for the second.

[2H]C([2H])([2H])Oc1c(Oc2ccc(C(F)F)c(OC)c2C(=O)Nc2ccnc(C(N)=O)c2)ccc(OC(F)(F)F)c1F [Compound 319, 4-[[3-(difluoromethyl)-6-[3-fluoro-2-(trideuteriomethoxy)-4-(trifluoromethoxy)phenoxy]-2-methoxy-benzoyl]amino]pyridine-2-carboxamide] and COc1c(Oc2ccc(OC(F)(F)F)c(F)c2C(=O)Nc2ccnc(C(N)=O)c2)ccc(OC(F)(F)F)c1F [Compound 322, 4-[[2-fluoro-6-[3-fluoro-2-methoxy-4-(trifluoromethoxy)phenoxy]-3-(trifluoromethoxy)benzoyl]amino]pyridine-2-carboxamide] are within 1.5-fold of each other in IC50: 5.2 nM for the first, 6.1 nM for the second.

Going from COc1cc(Oc2ccc(OC(F)(F)F)c(F)c2OC)c(C(=O)Nc2ccnc(C(N)=O)c2)c(F)c1C(F)(F)F [Compound 320, 4-[[2-fluoro-6-[3-fluoro-2-methoxy-4-(trifluoromethoxy)phenoxy]-4-methoxy-3-(trifluoromethyl)benzoyl]amino]pyridine-2-carboxamide] to COc1cc(Oc2ccc(OC(F)(F)F)c(F)c2OC)c(C(=O)Nc2ccc(C(N)=O)nc2)c(F)c1C(F)(F)F [Compound 321, 5-[[2-fluoro-6-[3-fluoro-2-methoxy-4-(trifluoromethoxy)phenoxy]-4-methoxy-3-(trifluoromethyl)benzoyl]amino]pyridine-2-carboxamide], the IC50 rises from 0.4 nM to 11 nM (28-fold). The first is the more potent here.

First: COc1c(Oc2cc(C(F)(F)F)c(C)c(F)c2C(=O)Nc2ccnc(C(N)=O)c2)ccc(OC(F)(F)F)c1F [Compound 323, 4-[[2-fluoro-6-[3-fluoro-2-methoxy-4-(trifluoromethoxy)phenoxy]-3-methyl-4-(trifluoromethyl)benzoyl]amino]pyridine-2-carboxamide]
Second: COc1c(Oc2cc(C(F)(F)F)c(OC)c(F)c2C(=O)Nc2ccnc(C(N)=O)c2)ccc(OC(F)(F)F)c1F [Compound 325, 4-[[2-fluoro-6-[3-fluoro-2-methoxy-4-(trifluoromethoxy)phenoxy]-3-methoxy-4-(trifluoromethyl)benzoyl]amino]pyridine-2-carboxamide]
The IC50 of the first is 2-fold lower: 0.8 nM for the first, 1.6 nM for the second.

COc1cc(Oc2ccc(OC(F)(F)F)c(F)c2OC)c(C(=O)Nc2ccnc(C(N)=O)c2)c(F)c1Cl [Compound 324, 4-[[3-chloro-2-fluoro-6-[3-fluoro-2-methoxy-4-(trifluoromethoxy)phenoxy]-4-methoxy-benzoyl]amino]pyridine-2-carboxamide] and COc1c(Cl)cc(Oc2ccc(OC(F)(F)F)c(F)c2OC)c(C(=O)Nc2ccnc(C(N)=O)c2)c1F [Compound 326, 4-[[4-chloro-2-fluoro-6-[3-fluoro-2-methoxy-4-(trifluoromethoxy)phenoxy]-3-methoxy-benzoyl]amino]pyridine-2-carboxamide] are within 1.5-fold of each other in IC50: 1.7 nM for the first, 1.3 nM for the second.

Compared with COc1c(Oc2cc3c(c(C)c2C(=O)Nc2ccnc(C(N)=O)c2)OC(F)(F)O3)ccc(OC(F)(F)F)c1F [Compound 327, 4-[[2,2-difluoro-6-[3-fluoro-2-methoxy-4-(trifluoromethoxy)phenoxy]-4-methyl-1,3-benzodioxole-5-carbonyl]amino]pyridine-2-carboxamide], COc1c(Oc2cnc(C(F)(F)F)c(F)c2C(=O)Nc2ccnc(C(N)=O)c2)ccc(OC(F)(F)F)c1F [Compound 332, N-(2-carbamoyl-4-pyridyl)-3-fluoro-5-[3-fluoro-2-methoxy-4-(trifluoromethoxy)phenoxy]-2-(trifluoromethyl)pyridine-4-carboxamide] is 3.1-fold lower in IC50: 8.3 nM for the first, 2.7 nM for the second.

COc1c(Oc2cnc(C(F)(F)F)c(OC)c2C(=O)Nc2ccnc(C(N)=O)c2)ccc(OC(F)(F)F)c1F [Compound 333, N-(2-carbamoyl-4-pyridyl)-5-[3-fluoro-2-methoxy-4-(trifluoromethoxy)phenoxy]-3-methoxy-2-(trifluoromethyl)pyridine-4-carboxamide] and COc1c(Oc2cnc(C(F)(F)F)c(OC)c2C(=O)Nc2cc(C(N)=O)ncc2C)ccc(OC(F)(F)F)c1F [Compound 334, N-(2-carbamoyl-5-methyl-4-pyridyl)-5-[3-fluoro-2-methoxy-4-(trifluoromethoxy)phenoxy]-3-methoxy-2-(trifluoromethyl)pyridine-4-carboxamide] are within 1.5-fold of each other in IC50: 4.9 nM for the first, 7 nM for the second.

COc1c(Oc2cnc(C(F)(F)F)c(C)c2C(=O)Nc2cnc(C(N)=O)nc2)ccc(OC(F)(F)F)c1F [Compound 335, 5-[[5-[3-fluoro-2-methoxy-4-(trifluoromethoxy)phenoxy]-3-methyl-2-(trifluoromethyl)pyridine-4-carbonyl]amino]pyrimidine-2-carboxamide] and COc1c(Oc2cnc(C(F)(F)F)c(C)c2C(=O)Nc2ccc(C(N)=O)nc2)ccc(OC(F)(F)F)c1F [Compound 337, N-(6-carbamoyl-3-pyridyl)-5-[3-fluoro-2-methoxy-4-(trifluoromethoxy)phenoxy]-3-methyl-2-(trifluoromethyl)pyridine-4-carboxamide] are within 1.5-fold of each other in IC50: 15.5 nM for the first, 20.5 nM for the second.

Compared with Cc1c(Oc2ccc(C(F)(F)F)c(F)c2C(=O)Nc2ccnc(C(N)=O)c2)ccc(F)c1Cl [Compound 338, 4-[[6-(3-chloro-4-fluoro-2-methyl-phenoxy)-2-fluoro-3-(trifluoromethyl)benzoyl]amino]pyridine-2-carboxamide], NC(=O)c1cc(NC(=O)c2c(Oc3ccc(F)c(F)c3Cl)ccc(C(F)(F)F)c2F)ccn1 [Compound 339, 4-[[6-(2-chloro-3,4-difluoro-phenoxy)-2-fluoro-3-(trifluoromethyl)benzoyl]amino]pyridine-2-carboxamide] is 1.7-fold lower in IC50: 47 nM for the first, 27 nM for the second.

First: NC(=O)c1cc(NC(=O)c2c(Oc3c(F)ccc(F)c3C3CC3)ccc(C(F)(F)F)c2F)ccn1 [Compound 340, 4-[[6-(2-cyclopropyl-3,6-difluoro-phenoxy)-2-fluoro-3-(trifluoromethyl)benzoyl]amino]pyridine-2-carboxamide]
Second: COc1c(Oc2ccc(C(F)(F)F)c(F)c2C(=O)Nc2ccnc(C(N)=O)c2)ccc(OC(F)F)c1F [Compound 343, 4-[[6-[4-(difluoromethoxy)-3-fluoro-2-methoxy-phenoxy]-2-fluoro-3-(trifluoromethyl)benzoyl]amino]pyridine-2-carboxamide]
The IC50 of the first is higher: greater than 3000 nM for the first, 4.8 nM for the second. The second is the more potent here.

With COc1cc(C(F)F)ccc1Oc1ccc(C(F)(F)F)c(F)c1C(=O)Nc1ccnc(C(N)=O)c1 [Compound 341, 4-[[6-[4-(difluoromethyl)-2-methoxy-phenoxy]-2-fluoro-3-(trifluoromethyl)benzoyl]amino]pyridine-2-carboxamide] the IC50 was 330 nM.

— US12441703B2, “Carboxamides as modulators of sodium channels” (VERTEX PHARMACEUTICALS INCORPORATED, priority 2019, dated 2025)
